Experimental findings from patent US7094752B2 (Chiron Corporation, priority 1997, dated 2006) are described below.

Assay [1] concerns the target T1, uPA1–48:uPAR complexes binding to vitronectin (Homo sapiens, UniProt Q03405).
T1 construct: sUPAR, soluble truncated form of the urokinase receptor; made in house; host or cells: suPAR: baculovirus-infected Sf9 cells; uPA1-48: recombinant yeast; vitronectin: purified from human plasma
In words: Vitronectin binding assay (ELISA). Particulars: 20 nM biotinylated suPAR, 20 nM uPA1–48. How it is done: Vitronectin was purified from human plasma by the method of Yatohgo et al, Cello Struct.and Funct. 13: 281–292 (1988). Purified vitronectin was diluted to 20 μg/ml in PBS containing 1 mM CaCl2 and 0.5 mM MgCl2, dispensed at 50 μl/well into Immulon II wells (Dynatech, Chantilly, Va.), incubated overnight at 4° C. and washed with PBS/BSA. Biotinylated sUPAR was diluted to 20 nM in PBS/BSA, incubated with or without test ligand for 30 minutes at room temperature (22° C.), dispensed at 100 μl/well and incubated for 90 minutes. Wells were then washed and horseradish peroxidase (HRP)-conjugated streptavidin was added at 0.4 μg/ml in PBS/2% BSA for 1 hour followed by washing and addition of 100 μl/well TMB substrate. The color development was stopped with 100 μl of 0.8N H2SO4 and the absorbance at 450 nm measured in a 96 well plate reader (Dynatech, Chantilly, Va.). Antagonistic effects of test ligands were measured as described above except the ligands were incubated with 20 nM biotinylated suPAR in the presence of 20 nM uPA1–48.
In order to analyze the effects of the various peptide ligands on the uPAR:vitronectin interaction, we developed an in vitro ELISA based assay for this interaction, in which biotinylated suPAR and uPA1–48 bind to immobilized, urea purified vitronectin, and the bound sUPAR is detected with HRP conjugated streptavidin. Under the conditions of the assay binding of biotinylated uPAR to vitronectin is strictly dependent on uPA1–48, as shown in FIG. 1.
On the technique in general: An ELISA detects its analyte on a solid surface through an enzyme-linked reagent.

The target in the next assay is T2, suPAR (Homo sapiens, UniProt Q03405).
T2 construct: sUPAR, soluble truncated form of the urokinase receptor; made in house; host or cells: baculovirus-infected Sf9 insect cells
T2 sequence (Q03405 23-305 limits assumed): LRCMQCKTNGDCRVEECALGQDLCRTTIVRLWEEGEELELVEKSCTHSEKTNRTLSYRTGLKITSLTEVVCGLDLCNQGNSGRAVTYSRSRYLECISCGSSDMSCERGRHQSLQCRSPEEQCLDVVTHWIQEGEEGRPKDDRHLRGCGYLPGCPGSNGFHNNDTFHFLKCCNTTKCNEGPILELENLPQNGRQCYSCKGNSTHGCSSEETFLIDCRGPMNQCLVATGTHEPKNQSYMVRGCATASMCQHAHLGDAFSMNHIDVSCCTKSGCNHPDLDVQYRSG
The assay is described as follows: SuPAR:1-anilino-8-napthalenesulfonate (ANS) fluorescence. Particulars: 2 μM sUPAR, 10 μM ANS, 0 to 20 μM competitor. It counts as binding. How it is done: Determination of the effect of various peptide ligands on sUPAR/ANS fluorescence was performed following a procedure similar to that of Ploug et al, Biochem. 33: 8991–8997 (1994). Fluorescence emission spectra of sUPAR/ANS solutions with or without competitors were obtained using an Hitachi F-4500 fluorescence spectrophotometer with an excitation wavelength of 386 nm, 5-nm band-pass excitation and emission slits, and a 10 mm path length quartz cuvette. The emission spectra from 400 to 600 nm were recorded. For competition measurements, dilutions of a stock sUPAR/ANS solution were made to give individual 0.5 ml aliquots with a final concentration of 2 μM sUPAR, 10 μM ANS, and 0 to 20 μM competitor in PBS containing 10% DMSO. Fluorescence measurements were made after a one hour incubation at 25° C.

The next assay addresses T3, sUPAR domain 2–3 (D23) (Homo sapiens, UniProt Q03405).
T3 construct: domains 2 and 3 (amino acids 93–313); made in house; host or cells: baculovirus infected Sf9 insect cells
In words: Bacteriophage binding to sUPAR domain 2/3. Particulars: phage-displayed peptide. The procedure:
FIG. 5. Bacteriophage binding to sUPAR domain 2/3. Phage were added to wells containing sUPAR domain 2/3 immobilized by its epitope tag via protein G and monoclonal antibody to the epitope tag. Wells containing protein G and antibody but no domain 2/3 were included to determine nonspecific phage binding. Urea-eluted phage and the input stocks were titered by plaque formation assay. Results were single point determinations calculated as a percent of the input titer and were repeated in three separate experiments.
It was also shown by the inventors that bacteriophage bound to sUPAR domain 2–3fragment. Protein G, 100μl, 1 mg/ml in 50 mM Na2CO3, pH9.6, was added to MaxiSorp wells, incubated overnight at 4° C. and then washed with PBS/BSA. Fifty μl of monoclonal antibody to the epitope tag EYMPME (SEQ ID NO: 18) was added at 1 mg/ml in PBS/BSA and incubated for 2 hours at room temperature. The wells were washed, recombinant sUPAR domain 2–3 (1.7 μM in PBS/BSA) was added and incubated for 1.5 hours at room temperature. The wells were washed prior to the addition of bacteriophage (approximately 10^8 pfu), and then treated as described in the previous section for binding to suPAR.

Assay [2] has as its system GPI-uPAR dependent adhesion of 293 cells to vitronectin. The assay is described as follows: Adhesion of GPI-uPAR expressing 293 cells to vitronectin. The class given is cell-based. From the text:
In order to ascertain whether cytoskeletal connecting elements important to integrin-dependent adhesion were also involved in adhesion mediated by uPAR, embryonic kidney cells (293 cells) were engineered to coexpress uPAR along with a chimeric protein comprised of the β1 cytoplasmic tail fused with the transmembrane domain of […] (CD4). […] Co-expression of uPAR with β1 cytoplasmic domains completely abrogated uPAR-dependent vitronectin adhesion. Clones expressing full length or truncated β1 cytoplasmic tails prepared as in Lukashev et al, J. Biol. Chem. 26: 18311 (1994) were transfected with cDNA for GPI-uPAR and selected as in Wei et al, J. Biol. Chem. 169: 32380 (1994). Chimeric β1 expression was induced by cadmium for 6 hours prior to assaying adhesion to vitronectin at 37° C. Following induction of full length β1 chimerics, essentially no cells were adherent to vitronectin-coated surfaces whereas co-transfectants expressing the truncated β1 adhered avidly.
Cell adhesion assays were conducted to determin whether the observed uPAR/β1/caveolin complexes were functionally relevant.
To test this hypothesis further, a phage display peptide library was screened for uPAR-binding phages. A number of phage peptides were isolated as described in Goodson et al, Proc. Natl. Acad. Sci. U.S.A. 91: 7129 (1994). […]

T3 sequence (Q03405 115-335): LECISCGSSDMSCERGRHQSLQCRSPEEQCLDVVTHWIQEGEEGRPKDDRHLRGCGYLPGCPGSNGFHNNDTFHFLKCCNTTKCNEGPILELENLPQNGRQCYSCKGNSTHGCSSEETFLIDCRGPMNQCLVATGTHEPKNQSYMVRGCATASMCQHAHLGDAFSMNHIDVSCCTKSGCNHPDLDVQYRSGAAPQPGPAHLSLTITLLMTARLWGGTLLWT
T1 sequence (Q03405 23-305 limits assumed, one chain of several): as the sequence (Q03405 23-305 limits assumed) above

For H-AESTYHHLSLGYMYTLN-NH2 [peptide 25], in assay [1], the “effect on binding of uPA1–48:uPAR complexes to vitronectin” value was “little or no effect”. Besides, on suPAR, the “effect on ANS fluorescence enhancement in the presence of uPAR” value is “no effect”. For the same substance, the “bacteriophage binding to immobilized D23 versus sUPAR” value is “equivalent binding to D23 and suPAR” at sUPAR domain 2–3 (D23) (listed as bacteriophage 25); “bind equivalently to the D23 fragment and full-length receptor” at sUPAR domain 2–3 (D23) (listed as clone 25). Further, in assay [2], the concentration for half-maximal inhibition (IC50) is about 60 µM.

The term IC50 denotes the concentration needed to halve the response being measured. Higher therefore signals weaker potency in that assay.
